Here are results for 31 molecules from patent US11136317B2, “NADPH oxidase 4 inhibitors” (ACTELION PHARMACEUTICALS LTD, priority 2015, dated 2021).

pIC50: −log10 of the molar value.

The test addresses T1, human NOX4 (Homo sapiens, UniProt Q9NPH5).
T1 construct: The full-length human NOX4 (NM_016931.3) transcript was cloned; expressed in transfected cells
T1 sequence (Q9NPH5 1-578): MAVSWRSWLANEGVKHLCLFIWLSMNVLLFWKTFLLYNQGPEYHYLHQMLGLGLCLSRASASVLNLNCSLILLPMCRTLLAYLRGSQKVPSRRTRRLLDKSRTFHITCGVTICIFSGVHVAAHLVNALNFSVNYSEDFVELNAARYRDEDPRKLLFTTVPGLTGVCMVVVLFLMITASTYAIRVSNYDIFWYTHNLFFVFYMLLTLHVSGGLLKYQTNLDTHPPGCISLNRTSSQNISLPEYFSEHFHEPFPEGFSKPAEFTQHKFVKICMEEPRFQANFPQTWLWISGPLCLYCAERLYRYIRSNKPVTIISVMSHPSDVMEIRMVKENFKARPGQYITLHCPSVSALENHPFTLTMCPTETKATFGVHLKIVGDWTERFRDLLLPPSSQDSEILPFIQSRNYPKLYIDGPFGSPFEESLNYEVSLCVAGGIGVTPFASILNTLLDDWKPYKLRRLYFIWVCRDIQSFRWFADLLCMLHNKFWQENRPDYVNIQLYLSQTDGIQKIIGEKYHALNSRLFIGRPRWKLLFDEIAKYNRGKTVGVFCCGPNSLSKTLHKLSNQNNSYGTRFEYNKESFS
T1 sequence (P13498 1-195 partner): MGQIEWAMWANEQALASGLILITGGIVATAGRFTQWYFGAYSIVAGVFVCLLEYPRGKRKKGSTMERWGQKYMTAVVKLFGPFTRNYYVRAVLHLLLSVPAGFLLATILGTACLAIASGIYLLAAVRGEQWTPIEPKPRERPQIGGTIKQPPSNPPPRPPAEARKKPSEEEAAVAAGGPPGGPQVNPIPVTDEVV
Nature of the test: Amplex Red activity assay (cellular H2O2 formation in hNOX4 T-REx-293 cells). In kind it is cell-based. To be noted: tet-induced 24 h, extracellular H2O2 by Amplex Red, 60 min 25° C., geometric mean if determined several times. The method, boiled down:
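Tet-induced (1 μg/mL, 24 h) HEK293 T-REx cells stably expressing full-length human NOX4, 20 000 cells/well, exposed to compounds (10 concentrations, 50 μM to 100 nM; 1.25% DMSO) for 60 min at 25°C. Extracellular H2O2 detected by Amplex Red resorufin fluorescence (ex 550/em 600 nm) versus vehicle; IC50 calculated.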
Turning to `CN(C)CC1CCN(c2nc3cc(NC(=O)c4ccc5c(c4)CCO5)ccc3s2)C1` (stereo not shown) [Example 105, 2,3-Dihydro-benzofuran-5-carboxylic acid [2-(3-dimethylaminomethyl-pyrrolidin-1-yl)-benzothiazol-5-yl]-amide], the negative logarithm of the IC50 (pIC50) (in general, the IC50 on a negative log10 scale, so that one unit is a factor of ten) is 4.83.

For `CC(C)OC1CN(c2nc3cc(NC(=O)c4ccc5c(c4)CCO5)ccc3s2)C1` [Example 106, 2,3-Dihydro-benzofuran-5-carboxylic acid [2-(3-isopropoxy-azetidin-1-yl)-benzothiazol-5-yl]-amide], the pIC50 was 5.03.

On to `CCOCC1CCCN1c1nc2cc(NC(=O)c3ccc4c(c3)CCO4)ccc2s1` (stereo not shown) [Example 107, 2,3-Dihydro-benzofuran-5-carboxylic acid [2-(2-ethoxymethyl-pyrrolidin-1-yl)-benzothiazol-5-yl]-amide], for which the pIC50 is 5.02.

For the molecule `COC1CCCN(c2nc3cc(NC(=O)c4ccc5c(c4)CCO5)ccc3s2)C1` (stereo not shown) [Example 108, 2,3-Dihydro-benzofuran-5-carboxylic acid [2-(3-methoxy-piperidin-1-yl)-benzothiazol-5-yl]-amide], the pIC50 was 5.60.

For `O=C(Nc1ccc2sc(N3CC(O)C3)nc2c1)c1ccc2c(c1)CCO2` [Example 109, 2,3-Dihydro-benzofuran-5-carboxylic acid [2-(3-hydroxy-azetidin-1-yl)-benzothiazol-5-yl]-amide], the pIC50 was 5.75.

On to `O=C(Nc1ccc2sc(N3CCC(O)CC3)nc2c1)c1ccc2c(c1)CCO2` [Example 110, 2,3-Dihydro-benzofuran-5-carboxylic acid [2-(4-hydroxy-piperidin-1-yl)-benzothiazol-5-yl]-amide], for which the pIC50 was 5.69.

For the molecule `O=C(Nc1ccc2sc(N3CC[C@@H](O)C3)nc2c1)c1ccc2c(c1)CCO2` [Example 112, 2,3-Dihydro-benzofuran-5-carboxylic acid [2-((R)-3-hydroxy-pyrrolidin-1-yl)-benzothiazol-5-yl]-amide], the pIC50 was 5.64.

For `COCC1CCCN1c1nc2cc(NC(=O)c3ccc4c(c3)CCO4)ccc2s1` (stereo not shown) [Example 113, 2,3-Dihydro-benzofuran-5-carboxylic acid [2-(2-methoxymethyl-pyrrolidin-1-yl)-benzothiazol-5-yl]-amide], the pIC50 was 5.49.

On to `O=C(Nc1ccc2sc(N3CCC[C@H](O)C3)nc2c1)c1ccc2c(c1)CCO2` [Example 114, 2,3-Dihydro-benzofuran-5-carboxylic acid [2-((S)-3-hydroxy-piperidin-1-yl)-benzothiazol-5-yl]-amide], for which the pIC50 was 5.53.

As for `O=C(Nc1ccc2sc(N3CCC4(COC4)C3)nc2c1)c1ccc2c(c1)CCO2` [Example 115, 2,3-Dihydro-benzofuran-5-carboxylic acid [2-(2-oxa-6-aza-spiro[3.4]oct-6-yl)-benzothiazol-5-yl]-amide], the pIC50 is 5.47.

As to `O=C(Nc1ccc2sc(N3CCC[C@@H](O)C3)nc2c1)c1ccc2c(c1)CCO2` [Example 116, 2,3-Dihydro-benzofuran-5-carboxylic acid [2-((R)-3-hydroxy-piperidin-1-yl)-benzothiazol-5-yl]-amide], the pIC50 is 5.66.

As for `CN(C)CC1CCCN1c1nc2cc(NC(=O)c3ccc4c(c3)CCO4)ccc2s1` (stereo not shown) [Example 117, 2,3-Dihydro-benzofuran-5-carboxylic acid [2-(2-dimethylaminomethyl-pyrrolidin-1-yl)-benzothiazol-5-yl]-amide], the pIC50 was 5.42.

As to `O=C(Nc1ccc2oc(N3CCC3)nc2c1)c1ccc2c(c1)CCO2` [Example 118, 2,3-Dihydro-benzofuran-5-carboxylic acid (2-azetidin-1-yl-benzooxazol-5-yl)-amide], the pIC50 is 6.30.

For the molecule `CCNc1nc2cc(NC(=O)c3ccc4c(c3)CCO4)ccc2o1` [Example 119, 2,3-Dihydro-benzofuran-5-carboxylic acid (2-ethylamino-benzooxazol-5-yl)-amide], the pIC50 was 6.00.

Take `O=C(Nc1ccc2oc(N3CC(c4ccccn4)C3)nc2c1)c1ccc2c(c1)CCO2` [Example 120, 2,3-Dihydro-benzofuran-5-carboxylic acid [2-(3-pyridin-2-yl-azetidin-1-yl)-benzooxazol-5-yl]-amide]: the pIC50 was 5.63.

For `O=C(Nc1ccc2oc(N3CC(F)(F)C3)nc2c1)c1ccc2c(c1)OCO2` [Example 121, Benzo[1,3]dioxole-5-carboxylic acid [2-(3,3-difluoro-azetidin-1-yl)-benzooxazol-5-yl]-amide], the pIC50 was 5.02.

`O=C(Nc1ccc2oc(N3CC(O)C3)nc2c1)c1ccc2c(c1)OCO2` [Example 122, Benzo[1,3]dioxole-5-carboxylic acid [2-(3-hydroxy-azetidin-1-yl)-benzooxazol-5-yl]-amide]: the pIC50 is 5.68.

On to `O=C(Nc1ccc2oc(N3CCC34CCC4)nc2c1)c1ccc2c(c1)OCO2` [Example 123, Benzo[1,3]dioxole-5-carboxylic acid [2-(1-aza-spiro[3.3]hept-1-yl)-benzooxazol-5-yl]-amide], for which the pIC50 was 6.36.

As for `O=C(Nc1ccc2oc(N3CCC34COC4)nc2c1)c1ccc2c(c1)OCO2` [Example 124, Benzo[1,3]dioxole-5-carboxylic acid [2-(6-oxa-1-aza-spiro[3.3]hept-1-yl)-benzooxazol-5-yl]-amide], the pIC50 was 6.38.

`O=C(Nc1ccc2oc(N3CCC34CCOC4)nc2c1)c1ccc2c(c1)OCO2` (stereo not shown) [Example 125, Benzo[1,3]dioxole-5-carboxylic acid [2-(6-oxa-1-aza-spiro[3.4]oct-1-yl)-benzooxazol-5-yl]-amide]: the pIC50 is 6.11.

As for `O=C(Nc1ccc2oc(N3CCC34CCOCC4)nc2c1)c1ccc2c(c1)OCO2` [Example 126, Benzo[1,3]dioxole-5-carboxylic acid [2-(7-oxa-1-aza-spiro[3.5]non-1-yl)-benzooxazol-5-yl]-amide], the pIC50 is 6.12.

For `O=C(Nc1ccc2oc(N3CCCC3)nc2c1)c1ccc2c(c1)OCO2` [Example 127, Benzo[1,3]dioxole-5-carboxylic acid (2-pyrrolidin-1-yl-benzooxazol-5-yl)-amide], the pIC50 is 5.90.

For `O=C(Nc1ccc2oc(N3CCCC34COC4)nc2c1)c1ccc2c(c1)OCO2` [Example 128, Benzo[1,3]dioxole-5-carboxylic acid [2-(2-oxa-5-aza-spiro[3.4]oct-5-yl)-benzooxazol-5-yl]-amide], the pIC50 was 5.76.

For `O=C(Nc1ccc2oc(N3CCCCC3)nc2c1)c1ccc2c(c1)OCO2` [Example 129, Benzo[1,3]dioxole-5-carboxylic acid (2-piperidin-1-yl-benzooxazol-5-yl)-amide], the pIC50 is 6.07.

For the molecule `O=C(Nc1ccc2oc(N3CCCC(F)(F)C3)nc2c1)c1ccc2c(c1)OCO2` [Example 130, Benzo[1,3]dioxole-5-carboxylic acid [2-(3,3-difluoro-piperidin-1-yl)-benzooxazol-5-yl]-amide], the pIC50 is 6.00.

Consider `COC1CCN(c2nc3cc(NC(=O)c4ccc5c(c4)OCO5)ccc3o2)CC1` [Example 131, Benzo[1,3]dioxole-5-carboxylic acid [2-(4-methoxy-piperidin-1-yl)-benzooxazol-5-yl]-amide], for which the pIC50 was 5.98.

Consider `O=C(Nc1ccc2oc(N3CCC4(CC3)COC4)nc2c1)c1ccc2c(c1)OCO2` [Example 132, Benzo[1,3]dioxole-5-carboxylic acid [2-(2-oxa-7-aza-spiro[3.5]non-7-yl)-benzooxazol-5-yl]-amide], for which the pIC50 is 5.97.

Consider `O=C(Nc1ccc2oc(N3CCCC4(COC4)C3)nc2c1)c1ccc2c(c1)OCO2` [Example 133, Benzo[1,3]dioxole-5-carboxylic acid [2-(2-oxa-6-aza-spiro[3.5]non-6-yl)-benzooxazol-5-yl]-amide], for which the pIC50 is 6.21.

`O=C(Nc1ccc2oc(N3CCC(F)(F)CC3)nc2c1)c1ccc2c(c1)OCO2` [Example 134, Benzo[1,3]dioxole-5-carboxylic acid [2-(4,4-difluoro-piperidin-1-yl)-benzooxazol-5-yl]-amide]: the pIC50 was 6.06.

With `O=C(Nc1ccc2oc(N3CCC(O)CC3)nc2c1)c1ccc2c(c1)OCO2` [Example 135, Benzo[1,3]dioxole-5-carboxylic acid [2-(4-hydroxy-piperidin-1-yl]-benzooxazol-5-yl]-amide], the pIC50 is 5.96.

`O=C(Nc1ccc2oc(N3CCOCC3)nc2c1)c1ccc2c(c1)OCO2` [Example 136, Benzo[1,3]dioxole-5-carboxylic acid (2-morpholin-4-yl-benzooxazol-5-yl)-amide]: the negative-log IC50 (pIC50) was 5.89.
